From patent publication US11339130B1 (Blade Therapeutics, Inc., priority 2016, dated 2022)

Columns and labels:
human calpain 9 = molecular target: T1, human calpain 9 (Homo sapiens, UniProt O14815); assay: Calpain binding: crystal structure interaction distances, human calpain 9; settings: for Interaction Distances P1-Gly95 / Interaction Distances P1-Gly189 / Interaction Distances P1-Lys188 / Interaction Distances P1-Ser242 / Interaction Distances P2-Ala255 / Interaction Distances P2-Gly190 / Interaction Distances P2-Gly253 / Interaction Distances P2-His254 / Interaction Distances P2-Phe233 / Interaction Distances P3-Gly189 / Interaction Distances P3-Gly190 / Interaction Distances P3-Ser191: non-polar interactions with human calpain 9; for Interaction Distances R^10-Gly253 / Interaction Distances R^11-Gly190 / Interaction Distances R^12-His254 / Interaction Distances R^13-Cys97 / Interaction Distances R^13-Gln91: polar interactions with human calpain 9
T1 construct: human calpain 9, residues 27-347, was over expressed in E. coli BL21 (DE3); hexa-histidine (N); made in house; host or cells: E. coli BL21 (DE3)
T1 sequence (O14815 27-347): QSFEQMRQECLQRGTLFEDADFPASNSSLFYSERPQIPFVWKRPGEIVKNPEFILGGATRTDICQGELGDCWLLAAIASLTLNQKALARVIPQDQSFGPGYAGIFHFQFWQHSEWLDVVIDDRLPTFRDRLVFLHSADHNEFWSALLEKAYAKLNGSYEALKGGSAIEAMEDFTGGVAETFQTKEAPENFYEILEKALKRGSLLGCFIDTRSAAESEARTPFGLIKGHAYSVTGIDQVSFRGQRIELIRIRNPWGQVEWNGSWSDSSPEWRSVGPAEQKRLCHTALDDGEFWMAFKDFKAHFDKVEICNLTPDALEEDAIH
Method: Calpain 9 Protein Preparation: N-terminally hexa-histidine-tagged human calpain 9, residues 27-347, was over expressed in E. coli BL21 (DE3) and purified via Ni-NTA and size-exclusion chromatography with yields >10 mg/liter of culture and >99% purity. The calpain 9 sequence is accession number 014815 at uniprot.org.
(§1) Calpain 9 Crystallization: A 10 mg/ml solution of rat calpain 1 or human calpain 9 (obtained as described above) was prepared in 50 mM tris (pH 8), 0.5 M NaCl, 1 mM EDTA, 1 mM CaCl2), and 1 mM beta-mercaptoethanol against MCSG1 screen condition C2 (Anatrace, Maumee, Ohio) containing 0.2 M LiSO4, 0.1 M bis-tris (pH 5.5), and 25% PEG 3350. The solution contained 2.5 mM of test compound supplemented with 20% ethylene glycol as a cryo-protectant. The bound protein was crystallized using vapor diffusion, sitting drop, at […]. The space group was P 41 21 2, with unit cell dimensions of 97.2 Å, 97.2 Å, 173.4 Å.
Calpain 9 Crystallography data collection and refinement: Data was collected at the APS synchrotron, beamline 21-ID-F at […]. Reflections were collect between 45.0-2.1 Å with completeness of 100%. Reflection data was analyzed using XDS and Xscale (Heidelberg, Germany). Structure was solved using molecular replacement and was refined with PHENIX (Berkeley, Calif.) to an R value of 0.168, Rfree=0.210.
(§2) Key interactions between test compound moieties (with reference to the variables of Formula II) and calpain 1 or calpain 9 residues were determined as set forth in Tables 4-7 below.

rat calpain 1 = molecular target: T2, rat calpain 1 (Rattus norvegicus, UniProt P97571); assay: Calpain binding: crystal structure interaction distances, rat calpain 1; settings: for Interaction Distances P1-Gly113 / Interaction Distances P1-Gly207 / Interaction Distances P1-Met260 / Interaction Distances P1-Ser206 / Interaction Distances P2-Ala273 / Interaction Distances P2-Gly208 / Interaction Distances P2-Gly271 / Interaction Distances P2-His272 / Interaction Distances P2-Ser251 / Interaction Distances P3-Gly207 / Interaction Distances P3-Gly208 / Interaction Distances P3-Ser209: non-polar interactions with rat calpain 1; for Interaction Distances R^10-Gly271 / Interaction Distances R^11-Gly208 / Interaction Distances R^12-His272 / Interaction Distances R^13-Cys115 / Interaction Distances R^13-Gln109: polar interactions with rat calpain 1
T2 construct: made in house
Method: as §1
Calpain 1 preparation, crystallization, and data collection: Suitable constructs for expression of rat calpain 1 had been previously established. Expression was performed according to previously established protocols. A purification protocol was established and homogeneous protein was produced in preparative amounts. The calpain 1 protein was purified comprising affinity and gel filtration chromatography steps. This procedure yielded homogenous protein with a purity greater 95% as judged from Coomassie stained SDS-PAGE. The purified protein was used in crystallization trials with test compounds employing both, a standard screen with approximately 1200 different conditions, as well as crystallization conditions identified using literature data. Conditions initially obtained were optimised using standard strategies, systematically varying parameters critically influencing crystallization, such as temperature, protein concentration, drop ratio, and others. These conditions were also refined by systematically varying pH or precipitant concentrations. Crystals were flashfrozen and measured at a temperature of 100 K. The X-ray diffraction data were collected from complex crystals ligands at a synchrotron source using cryogenic conditions. Data were processed using software programs XDS and XSCALE
as §2

T2 sequence (P97571 29-356 limits assumed): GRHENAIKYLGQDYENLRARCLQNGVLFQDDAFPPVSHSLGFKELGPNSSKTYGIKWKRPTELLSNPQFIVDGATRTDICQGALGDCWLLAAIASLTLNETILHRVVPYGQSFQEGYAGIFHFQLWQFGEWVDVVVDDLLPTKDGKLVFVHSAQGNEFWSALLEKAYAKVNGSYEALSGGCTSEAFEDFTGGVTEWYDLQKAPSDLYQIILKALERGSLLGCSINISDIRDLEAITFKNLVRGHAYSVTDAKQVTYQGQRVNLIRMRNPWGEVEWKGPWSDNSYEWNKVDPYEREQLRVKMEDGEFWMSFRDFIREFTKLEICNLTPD

SMILES	Interaction Distances P1-Gly95 (human calpain 9) [Å]	Interaction Distances P1-Gly189 (human calpain 9) [Å]	Interaction Distances P1-Lys188 (human calpain 9) [Å]	Interaction Distances P1-Ser242 (human calpain 9) [Å]	Interaction Distances P2-Ala255 (human calpain 9) [Å]	Interaction Distances P2-Gly190 (human calpain 9) [Å]	Interaction Distances P2-Gly253 (human calpain 9) [Å]	Interaction Distances P2-His254 (human calpain 9) [Å]	Interaction Distances P2-Phe233 (human calpain 9) [Å]	Interaction Distances P3-Gly189 (human calpain 9) [Å]	Interaction Distances P3-Gly190 (human calpain 9) [Å]	Interaction Distances P3-Ser191 (human calpain 9) [Å]	Interaction Distances R^10-Gly253 (human calpain 9) [Å]	Interaction Distances R^11-Gly190 (human calpain 9) [Å]	Interaction Distances R^12-His254 (human calpain 9) [Å]	Interaction Distances R^13-Cys97 (human calpain 9) [Å]	Interaction Distances R^13-Gln91 (human calpain 9) [Å]	Interaction Distances P1-Gly113 (rat calpain 1) [Å]	Interaction Distances P1-Gly207 (rat calpain 1) [Å]	Interaction Distances P1-Met260 (rat calpain 1) [Å]	further results
NC(=O)C(=O)[C@H](Cc1ccccc1)NC(=O)c1nsnc1-c1ccccc1 [Compound 72, (S)—N-(4-amino-3,4-dioxo-1-phenylbutan-2-yl)-4-phenyl-1,2,5-thiadiazole-3-carboxamide]	3.9	3.5	4.0	3.5	3.6	3.0	3.2	3.7	4.1	3.8	3.3	4.2	3.2	2.9	2.6	2.9	2.8	–	–	–	–
CCCC[C@H](NC(=O)c1oc(C)nc1-c1ccccc1)C(=O)C(N)=O [Compound 265, (S)—N-(1-amino-1,2-dioxoheptan-3-yl)-2-methyl-4-phenyloxazole-5-carboxamide]	3.7	3.7	4.4	4.0	4.1	3.2	2.9	4.2	3.3	3.8	3.4	3.8	2.9	3.2	2.4	3.1	2.9	–	–	–	–
NC(=O)C(=O)[C@H](Cc1ccccc1)NC(=O)c1snnc1-c1ccccc1 [Compound 44, (S)—N-(4-amino-3,4-dioxo-1-phenylbutan-2-yl)-4-phenyl-1,2,3-thiadiazole-5-carboxamide]	3.6	3.4	3.7	3.7	3.9	3.0	3.4	4.2	4.4	4.0	3.3	4.2	2.9	3.2	2.5	3.0	2.8	–	–	–	–
NC(=O)C(=O)[C@H](Cc1ccccc1)NC(=O)c1cn(C2CC2)nc1-c1ccccc1 [Compound 250, (S)—N-(4-amino-3,4-dioxo-1-phenylbutan-2-yl)-1-cyclopropyl-3-phenyl-1H-pyrazole-4-carboxamide]	–	–	–	–	–	–	–	–	–	–	–	–	–	–	–	–	–	3.8	3.5	3.5	Interaction Distances P1-Ser206 (rat calpain 1): 4.1 Å; Interaction Distances P2-Ala273 (rat calpain 1): 4.4 Å; Interaction Distances P2-Gly208 (rat calpain 1): 3.3 Å; Interaction Distances P2-Gly271 (rat calpain 1): 3.4 Å; Interaction Distances P2-His272 (rat calpain 1): 4.6 Å; Interaction Distances P2-Ser251 (rat calpain 1): 3.7 Å; Interaction Distances P3-Gly207 (rat calpain 1): 3.6 Å; Interaction Distances P3-Gly208 (rat calpain 1): 3.5 Å; Interaction Distances P3-Ser209 (rat calpain 1): 3.8 Å; Interaction Distances R^10-Gly271 (rat calpain 1): 3.28 Å; Interaction Distances R^11-Gly208 (rat calpain 1): 2.98 Å; Interaction Distances R^12-His272 (rat calpain 1): 2.81 Å; Interaction Distances R^13-Cys115 (rat calpain 1): 2.96 Å; Interaction Distances R^13-Gln109 (rat calpain 1): 3 Å
NC(=O)C(=O)[C@H](Cc1ccccc1)NC(=O)c1cnoc1-c1ccccc1 [Compound 60, (S)—N-(4-amino-3,4-dioxo-1-phenylbutan-2-yl)-5-phenylisoxazole-4-carboxamide]	–	–	–	–	–	–	–	–	–	–	–	–	–	–	–	–	–	4.0	3.7	3.3	Interaction Distances P1-Ser206 (rat calpain 1): 4.4 Å; Interaction Distances P2-Ala273 (rat calpain 1): 4.1 Å; Interaction Distances P2-Gly208 (rat calpain 1): 3.2 Å; Interaction Distances P2-Gly271 (rat calpain 1): 3.2 Å; Interaction Distances P2-His272 (rat calpain 1): 4.2 Å; Interaction Distances P2-Ser251 (rat calpain 1): 4.4 Å; Interaction Distances P3-Gly207 (rat calpain 1): 3.7 Å; Interaction Distances P3-Gly208 (rat calpain 1): 3.3 Å; Interaction Distances P3-Ser209 (rat calpain 1): 4.4 Å; Interaction Distances R^10-Gly271 (rat calpain 1): 3.21 Å; Interaction Distances R^11-Gly208 (rat calpain 1): 2.9 Å; Interaction Distances R^12-His272 (rat calpain 1): 2.9 Å; Interaction Distances R^13-Cys115 (rat calpain 1): 2.91 Å; Interaction Distances R^13-Gln109 (rat calpain 1): 2.91 Å
Cn1cc(C(=O)N[C@@H](Cc2ccccc2)C(=O)C(N)=O)c(-c2ccccc2)n1 [Compound 32, (S)—N-(4-amino-3,4-dioxo-1-phenylbutan-2-yl)-1-methyl-3-phenyl-1H-pyrazole-4-carboxamide]	4.0	3.5	3.8	3.6	4.3	3.3	3.1	4.2	3.3	3.7	3.5	4.4	3.2	2.9	2.7	2.9	2.8	–	–	–	–
